Assay results taken from patent publication US20180000089A1, “NOVEL MICROBIOCIDES” (Syngenta Participations AG, priority 2015, published 2018).

Tests used:
[1] = tested on: Botryotinia fuckeliana (Botrytis cinerea); assay: Botryotinia fuckeliana (Botrytis cinerea) / liquid culture (gray mould); type: cell-based; settings: Vogels broth, 24° C., inhibition of growth determined photometrically 3-4 days after application, read-out: disease control
Procedure: (§1) 9 Botryotinia fuckeliana (Botrytis cinerea)/liquid culture (Gray mould): Conidia of the fungus from cryogenic storage were directly mixed into nutrient broth (Vogels broth). After placing a DMSO solution of test compound into a 96-well microtiter plate at an application rate of 200 ppm, the nutrient broth containing the fungal spores was added. The test plates were incubated at 24° C. and the inhibition of growth was determined photometrically 3-4 days after application.

Alternaria solani = Alternaria solani / tomato / leaf disc (early blight); type: in vivo; settings: 200 ppm; tomato leaf disks cv. Baby, inoculated 2 days after application; assessed 5-7 days after application vs untreated
Procedure: 6 Alternaria solani/Tomato/Leaf Disc (Early Blight) Tomato leaf disks cultivated variety (cv.) Baby were placed on agar in multiwell plates (24-well format) and sprayed with the formulated test compound diluted in water at an application rate of 200 ppm. The leaf disks were inoculated with a spore suspension of the fungus 2 days after application. The inoculated leaf disks were incubated at 23° C./21° C.

[2] = tested on: Mycosphaerella graminicola (Septoria tritici); assay: Mycosphaerella graminicola (Septoria tritici) / liquid culture (Septoria blotch); type: cell-based; settings: Zymoseptoria tritici, PDB, 24° C., inhibition of growth determined photometrically 4-5 days after application, read-out: disease control
Procedure: as §1, with “12 Mycosphaerella graminicola (Septoria tritici)/Liquid Culture (Septoria Blotch):” for “9 Botryotinia fuckeliana (Botrytis cinerea)/liquid culture (Gray mould):”, “(PDB potato dextrose” for “(Vogels”, “4-5” for “3-4”

Pythium ultimum = Pythium ultimum / liquid culture (seedling damping off); type: cell-based; settings: Globisporangium ultimum, potato dextrose broth, 24° C., inhibition of growth determined photometrically 2-3 days after application, read-out: disease control
Procedure: 8 Pythium ultimum/Liquid Culture (Seedling Damping Off) Mycelia fragments and oospores of a newly grown liquid culture of the fungus were directly mixed into nutrient broth (potato dextrose broth). After placing a DMSO solution of test compound into a 96-well format microtiter plate at an application rate of 200 ppm, the nutrient broth containing the fungal mycelia/spore mixture was added. The test plates were incubated at 24° C. and the inhibition of growth was determined photometrically 2-3 days after application.

[3] = tested on: Monographella nivalis (Microdochium nivale); assay: Monographella nivalis (Microdochium nivale) / liquid culture (foot rot cereals); type: cell-based; settings: PDB, 24° C., inhibition of growth determined photometrically 4-5 days after application, read-out: disease control
Procedure: as §1, with “14 Monographella nivalis (Microdochium nivale)/liquid” for “9 Botryotinia fuckeliana (Botrytis cinerea)/liquid”, “(foot rot cereals):” for “(Gray mould):”, “(PDB potato dextrose” for “(Vogels”, “4-5” for “3-4”

Gaeumannomyces Graminis = assay: Gaeumannomyces graminis / liquid culture (take-all of cereals); type: cell-based; settings: PDB, 24° C., inhibition of growth determined photometrically 4-5 days after application, read-out: disease control
Procedure: 13 Gaeumannomyces Graminis/Liquid Culture (Take-all of Cereals): Mycelial fragments of the fungus from cryogenic storage were directly mixed into nutrient broth (PDB potato dextrose broth). […] The test plates were incubated at 24° C. and the inhibition of growth was determined photometrically 4-5 days after application.

Plasmopara viticola = assay: whole plant or invertebrate; type: in vivo; settings: foliar, read-out: disease control
Sclerotinia sclerotiorum = Sclerotinia sclerotiorum / liquid culture (cottony rot); type: cell-based; settings: PDB, 24° C., inhibition of growth determined visually 3-4 days after application, read-out: disease control
Procedure: 17 Sclerotinia sclerotiorum/liquid culture (cottony rot): Mycelia fragments of a newly grown liquid culture of the fungus were directly mixed into nutrient broth (PDB potato dextrose broth). After placing a (DMSO) solution of the test compounds into a microtiter plate (96-well format) the nutrient broth containing the fungal material was added. The test plates were incubated at 24° C. and the inhibition of growth was determined visually 3-4 days after application.

[4] = tested on: Mycosphaerella arachidis (Cercospora arachidicola); assay: Mycosphaerella arachidis (Cercospora arachidicola) / liquid culture (early leaf spot); type: cell-based; settings: PDB, 24° C., inhibition of growth determined photometrically 4-5 days after application, read-out: disease control
Procedure: as §1, with “11 Mycosphaerella arachidis (Cercospora arachidicola)/Liquid Culture (Early Leaf Spot):” for “9 Botryotinia fuckeliana (Botrytis cinerea)/liquid culture (Gray mould):”, “(PDB potato dextrose” for “(Vogels”, “4-5” for “3-4”

[5] = tested on: Glomerella lagenarium (Colletotrichum Lagenarium); assay: Glomerella lagenarium (Colletotrichum lagenarium) / liquid culture (anthracnose); type: cell-based; settings: Colletotrichum orbiculare, PDB, 24° C., inhibition of growth measured photometrically 3-4 days after application, read-out: disease control
Procedure: as §1, with “10 Glomerella lagenarium (Colletotrichum Lagenarium)/Liquid Culture (Anthracnose):” for “9 Botryotinia fuckeliana (Botrytis cinerea)/liquid culture (Gray mould):”, “(PDB potato dextrose” for “(Vogels”, “measured” for “determined”

Fusarium culmorum = assay: microbe, parasite or virus in culture; type: cell-based; settings: read-out: disease control
[6] = tested on: Thanatephorus cucumeris (Rhizoctonia solani); assay: Thanatephorus cucumeris (Rhizoctonia solani) / liquid culture (foot rot, damping-off); type: cell-based; settings: PDB, 24° C., inhibition of growth determined photometrically 3-4 days after application, read-out: disease control
Procedure: 16 Thanatephorus cucumeris (Rhizoctonia solani)/liquid culture (foot rot, damping-off): Mycelia fragments of a newly grown liquid culture of the fungus were directly mixed into nutrient broth (PDB potato dextrose broth). After placing a DMSO solution of the test compounds into a 96-well microtiter plate at an application rate of 200 ppm, the nutrient broth containing the fungal material was added. The test plates were incubated at 24° C. and the inhibition of growth was determined photometrically 3-4 days after application.

[7] = tested on: Magnaporthe grisea (Pyricularia oryzae); type: in vivo; settings: 200 ppm; rice leaf segments cv. Ballila, inoculated 2 days after application; assessed 5-7 days after application vs untreated
Pyrenophora teres = Pyrenophora teres / barley / leaf disc preventative (net blotch); type: in vivo; settings: 200 ppm; barley leaf segments cv Hasso, inoculated two days after application; assessed 5-7 days after application vs untreated
Procedure: 5 Pyrenophora teres/Barley/Leaf Disc Preventative (Net Blotch): Barley leaf segments cv Hasso were placed on agar in a 24-well plate and sprayed with formulated test compound diluted in water at an application rate of 200 ppm. The leaf segments were inoculated with a spore suspension of the fungus two days after application of the test solution. The inoculated leaf segments were incubated at 20° C. and 65% relative humidity under a light regime of 12/12 h (light/dark) in a climate cabinet and the activity of a compound was assessed as disease control compared to untreated when an appropriate level of disease damage appears in untreated check leaf segments (5-7 days after application).

SMILES	inhibition of growth at 200 ppm [1] [%]	melting point [°C]	disease control (Alternaria solani)	inhibition of growth at 200 ppm [2] [%]	inhibition of growth at 200 ppm (Pythium ultimum) [%]	inhibition of growth at 200 ppm [3] [%]	inhibition of growth at 200 ppm (Gaeumannomyces Graminis) [%]	pest or weed control at 200 ppm (Plasmopara viticola) [%]	inhibition of growth at 200 ppm (Sclerotinia sclerotiorum) [%]	inhibition of growth at 200 ppm [4] [%]	inhibition of growth at 200 ppm [5] [%]	inhibition of growth at 200 ppm (Fusarium culmorum) [%]	inhibition of growth at 200 ppm [6] [%]	disease control [7]	disease control (Pyrenophora teres)
OB1OCc2ccc(-c3ccccc3)cc21 [Compound 1, 1-hydroxy-6-phenyl-3H-2,1-benzoxaborole]	≥ 80	140 to 150	at least 80%	≥ 80	≥ 80	≥ 80	≥ 80	≥ 80	≥ 80	≥ 80	≥ 80				
OB1OCc2cc(Cl)c(-c3ccccc3)cc21 [Compound 3, 5-chloro-1-hydroxy-6-phenyl-3H-2,1-benzoxaborole]	≥ 80	135 to 145		≥ 80	≥ 80	≥ 80	≥ 80	≥ 80	≥ 80	≥ 80	≥ 80	≥ 80	≥ 80		
COc1ccccc1-c1cc2c(cc1Cl)COB2O [Compound 7, 5-chloro-1-hydroxy-6-(2-methoxyphenyl)-3H-2,1-benzoxaborole]		90 to 105		≥ 80	≥ 80			≥ 80			≥ 80	≥ 80	≥ 80		
OB1OCc2cc(F)c(-c3ccccc3)cc21 [Compound 9]	≥ 80	142 to 152		≥ 80	≥ 80	≥ 80	≥ 80	≥ 80	≥ 80	≥ 80	≥ 80	≥ 80		at least 80%	
OB1OCc2cc(F)c(-c3ccc(F)cc3)cc21 [Compound 10]	≥ 80	161 to 163		≥ 80	≥ 80	≥ 80	≥ 80	≥ 80	≥ 80	≥ 80	≥ 80	≥ 80			at least 80%
OB1OCc2cc(F)c(-c3ccc(Cl)cc3Cl)cc21 [Compound 28]	≥ 80			≥ 80			≥ 80		≥ 80	≥ 80			≥ 80		
COc1ccc(Cl)cc1-c1cc2c(cc1Cl)COB2O [Compound 31]	≥ 80			≥ 80	≥ 80	≥ 80			≥ 80	≥ 80	≥ 80	≥ 80	≥ 80		
